ChEMBL document CHEMBL3879897, “1,4-dithiin and 1,4-dithiepin-1,1,4,4, tetroxide derivatives useful as antagonists of the human galanin receptor” (2002)

Key:
Format in all cases: subcellular
[1] = molecular target: T1, Galanin receptor type 1 (Rattus norvegicus) (UniProt Q62805); test: (§1) Antagonist activity at galanin -1 receptor in rat brain synaptosomes assessed as galanin-mediated suppression of K+-Krebs-ringer solution-induced [3H]-acetylcholine secretion at 10 uM measured 10 mins post 30 sces superfusing with K+-Krebs-ringer solution by liquid scintillation spectrometric method (reference value: […]%)
T1 sequence (whole entry): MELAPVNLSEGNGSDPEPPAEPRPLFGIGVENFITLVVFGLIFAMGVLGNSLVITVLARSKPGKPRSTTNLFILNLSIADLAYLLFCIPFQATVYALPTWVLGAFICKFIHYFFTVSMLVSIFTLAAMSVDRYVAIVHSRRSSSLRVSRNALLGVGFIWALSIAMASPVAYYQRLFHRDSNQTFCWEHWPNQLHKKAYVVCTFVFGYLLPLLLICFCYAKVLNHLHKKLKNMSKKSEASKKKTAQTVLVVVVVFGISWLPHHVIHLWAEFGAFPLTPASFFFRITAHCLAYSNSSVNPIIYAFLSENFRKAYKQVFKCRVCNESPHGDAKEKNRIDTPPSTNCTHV

[2] = molecular target: T1, Galanin receptor type 1 (Rattus norvegicus); test: as §1, with “at 1” for “at 10”
[3] = molecular target: T1, Galanin receptor type 1 (Rattus norvegicus); test: Antagonist activity at galanin -1 receptor in rat brain synaptosomes assessed as galanin-mediated suppression of basal [3H]-acetylcholine secretion at 10 uM measured 10 mins post 30 sces superfusing with K+-Krebs-ringer solution by liquid scintillation spectrometric method (reference value: […]%)
[4] = molecular target: T1, Galanin receptor type 1 (Rattus norvegicus); test: Antagonist activity at galanin -1 receptor in rat brain synaptosomes assessed as galanin-mediated suppression of basal [3H]-acetylcholine secretion at 1 uM measured 10 mins post 30 sces superfusing with K+-Krebs-ringer solution by liquid scintillation spectrometric method (reference value: […]%)

inhibition [1] [%] | inhibition [2] [%] | inhibition [3] [%] | inhibition [4] [%] | SMILES
22.3 | 35.2 | 37 | 39.2 | O=S1(=O)C=C(c2ccc(I)cc2)S(=O)(=O)CCC1
– | 23.9 | 37 | 38.9 | O=S1(=O)C=C(c2cccc(F)c2)S(=O)(=O)CCC1
